Measurements: ChEMBL document CHEMBL4261644, “Novel Symmetrical Benzazolyl Derivatives Endowed with Potent Anti-Heparanase Activity” (J Med Chem, 2018)
Active and inactive are the calls of the source. The rule behind the calls is not given here.

Key:
Heparanase = target: T1, Heparanase (Homo sapiens, UniProt Q9Y251); assay: Inhibition of recombinant HPSE (unknown origin) using fondaparinux as substrate incubated for 3 hrs in absence of light by WST1 assay
T1 sequence (Q9Y251 whole entry): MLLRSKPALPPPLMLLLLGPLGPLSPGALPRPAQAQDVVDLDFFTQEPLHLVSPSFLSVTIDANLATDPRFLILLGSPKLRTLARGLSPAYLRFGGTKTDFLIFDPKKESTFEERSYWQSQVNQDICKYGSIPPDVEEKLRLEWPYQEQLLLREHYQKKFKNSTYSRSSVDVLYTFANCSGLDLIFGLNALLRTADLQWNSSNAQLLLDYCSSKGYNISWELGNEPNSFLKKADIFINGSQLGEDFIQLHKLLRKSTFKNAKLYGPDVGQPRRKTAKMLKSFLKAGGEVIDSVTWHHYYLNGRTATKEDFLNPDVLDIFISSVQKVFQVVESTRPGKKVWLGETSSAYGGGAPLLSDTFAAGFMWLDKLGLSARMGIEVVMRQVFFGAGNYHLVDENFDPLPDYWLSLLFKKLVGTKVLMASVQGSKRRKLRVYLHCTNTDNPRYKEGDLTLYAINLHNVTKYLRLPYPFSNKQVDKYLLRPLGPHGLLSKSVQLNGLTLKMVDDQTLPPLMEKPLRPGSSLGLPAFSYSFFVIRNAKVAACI

U2OS [1] = assay: Anti-invasive activity in human U2OS cells assessed as reduction in invasive potential at 10 uM after 24 hrs by matrigel invasion assay relative to control; type: functional
HT-1080 [2] = assay: Antiproliferative activity against human HT1080 cells after 72 hrs by SRB assay; type: cell-based
Homo sapiens [3] = species on record: Homo sapiens; assay: Anti-invasive activity in human CME1 cells assessed as reduction in invasive potential at […] uM after 24 hrs by matrigel invasion assay; type: functional, cell-based
U-87 MG [4] = assay: Anti-invasive activity in human U87MG cells assessed as reduction in invasive potential at 10 uM after 24 hrs by matrigel invasion assay relative to control; type: functional, U-87MG ATCC
HT-1080 [5] = assay: Anti-invasive activity in human HT1080 cells assessed as reduction in invasive potential at 10 uM after 24 hrs by matrigel invasion assay relative to control; type: functional; settings: HT-1080, 24 h
[6] = target: T2, Heparanase (Homo sapiens) (UniProt Q9Y251); assay: Inhibition of HPSE in human HT1080 cells assessed as reduction in FGF2 mRNA expression after 24 hrs by qPCR analysis relative to control; type: cell-based
T2 sequence (whole entry): T1 sequence (Q9Y251 whole entry)

Homo sapiens [7] = species on record: Homo sapiens; assay: Anti-invasive activity in human CME1 cells assessed as reduction in invasive potential at […] uM after 72 hrs by matrigel invasion assay; type: functional, cell-based
U-87 MG [8] = assay: Antiproliferative activity against human U87MG cells after 72 hrs by SRB assay; type: cell-based, U-87MG ATCC
[9] = target: T2, Heparanase (Homo sapiens); assay: Inhibition of HPSE in human HT1080 cells assessed as reduction in FGF1 mRNA expression after 24 hrs by qPCR analysis relative to control; type: cell-based
[10] = Antiproliferative activity against HPSE-expressing human CME1 cells after 72 hrs by SRB assay; type: functional
U2OS [11] = assay: Antiproliferative activity against human U2OS cells after 72 hrs by SRB assay; type: cell-based
Homo sapiens [12] = species on record: Homo sapiens; assay: Anti-invasive activity in human CME1 cells assessed as reduction in invasive potential after 24 hrs by matrigel invasion assay; type: functional, cell-based
[13] = target: T2, Heparanase (Homo sapiens); assay: Inhibition of HPSE in human HT1080 cells assessed as reduction in VEGF mRNA expression after 24 hrs by qPCR analysis relative to control; type: cell-based
[14] = target: T2, Heparanase (Homo sapiens); assay: Inhibition of HPSE in human HT1080 cells assessed as reduction in MMP9 mRNA expression after 24 hrs by qPCR analysis relative to control; type: cell-based
[15] = target: T2, Heparanase (Homo sapiens); assay: Inhibition of HPSE in human HT1080 cells assessed as reduction in HPSE mRNA expression after 24 hrs by qPCR analysis relative to control; type: cell-based
HT-1080 [16] = assay: Anti-invasive activity in human HT1080 cells assessed as reduction in invasive potential at […] after 24 hrs by matrigel invasion assay relative to control; type: functional, cell-based
U2OS [17] = assay: Anti-invasive activity in human U2OS cells assessed as reduction in invasive potential at 1 uM after 24 hrs by matrigel invasion assay relative to control; type: functional
HT-1080 [18] = assay: Anti-invasive activity in human HT1080 cells assessed as reduction in invasive potential at 1 uM after 24 hrs by matrigel invasion assay relative to control; type: functional; settings: HT-1080, 24 h
U-87 MG [19] = assay: Anti-invasive activity in human U87MG cells assessed as reduction in invasive potential at 1 uM after 24 hrs by matrigel invasion assay relative to control; type: functional, U-87MG ATCC

O=C(O)Cc1ccc2oc(-c3cccc(NC(=O)Nc4cccc(-c5nc6cc(CC(=O)O)ccc6o5)c4)c3)nc2c1
IC50 (Heparanase): > 10000 nM

O=C(Nc1ccc(C(=O)Nc2cccc(B(O)O)c2)cc1)Nc1ccc(C(=O)Nc2cccc(B(O)O)c2)cc1
IC50 (Heparanase): > 10000 nM

O=C(O)Cc1cccc(NC(=O)c2ccc(NC(=O)Nc3ccc(C(=O)Nc4cccc(CC(=O)O)c4)cc3)cc2)c1
IC50 (Heparanase): 1760 nM

O=C(O)Cc1ccc2oc(-c3ccc(NC(=O)Nc4ccc(-c5nc6cc(CC(=O)O)ccc6o5)cc4F)c(F)c3)nc2c1
inhibition at 10 µM (U2OS [1]): 50 to 90%
IC50 (HT-1080 [2]; ht-1080): Not Active
Activity (Homo sapiens [3]): inactive
inhibition at 10 µM (U-87 MG [4]): 50 to 90%
inhibition at 10 µM (HT-1080 [5]): < 50%
inhibition [6]: Active
Activity (Homo sapiens [7]): Active
IC50 (U-87 MG [8]; u-87mg atcc): Not Active
inhibition [9]: Active
IC50 [10]: 9500 nM
IC50 (U2OS [11]; u2os): Not Active
Activity (Homo sapiens [12]): Dose-dependent effect
IC50 (Heparanase): 180 nM
inhibition [13]: Active
inhibition [14]: Active
inhibition [15]: Active

Cc1cc2nc(N3CCC(NC(=O)NC4CCN(c5nc6cc(C)c(C)cc6o5)CC4)CC3)oc2cc1C
IC50 (Heparanase): > 10000 nM

O=C(O)Cc1cccc(NS(=O)(=O)c2ccc(NC(=O)Nc3ccc(S(=O)(=O)Nc4cccc(CC(=O)O)c4)cc3)cc2)c1
IC50 (Heparanase): > 10000 nM

CC(NC(=O)Cc1ccc2oc(-c3ccc(NC(=O)Nc4ccc(-c5nc6cc(CC(=O)NC(C)C(=O)O)ccc6o5)cc4F)c(F)c3)nc2c1)C(=O)O (configuration not stated)
inhibition at 10 µM (U2OS [1]): < 50%
IC50 (HT-1080 [2]; ht-1080): Not Active
inhibition at 10 µM (U-87 MG [4]): 50 to 90%
inhibition at 10 µM (HT-1080 [5]): < 50%
IC50 (U-87 MG [8]; u-87mg atcc): Not Active
IC50 (U2OS [11]; u2os): Not Active
IC50 (Heparanase): 370 nM

CC(C)CCNC(=O)Cc1ccc2oc(-c3ccc(NC(=O)Nc4ccc(-c5nc6cc(CC(=O)NCCC(C)C)ccc6o5)cc4F)c(F)c3)nc2c1
IC50 (Heparanase): > 10000 nM

N=C(Nc1ccc(-c2nc3cc(CC(=O)O)ccc3o2)cc1)Nc1ccc(-c2nc3cc(CC(=O)O)ccc3o2)cc1
IC50 (Heparanase): 6020 nM

O=C(O)CNC(=O)Cc1ccc2oc(-c3ccc(NC(=S)Nc4ccc(-c5nc6cc(CC(=O)NCC(=O)O)ccc6o5)cc4F)c(F)c3)nc2c1
inhibition (HT-1080 [16]): Active
inhibition at 10 µM (U2OS [1]): < 50%
IC50 (HT-1080 [2]; ht-1080): Not Active
inhibition at 10 µM (U-87 MG [4]): 50 to 90%
inhibition at 10 µM (HT-1080 [5]): 50 to 90%
inhibition [6]: < 40%
IC50 (U-87 MG [8]; u-87mg atcc): Not Active
inhibition [9]: < 40%
IC50 (U2OS [11]; u2os): Not Active
IC50 (Heparanase): 80 nM
inhibition ([13]; concentration not given here): < 40%
inhibition [14]: < 40%
inhibition ([15]; concentration not given here): < 40%

O=C(O)Cc1ccc2[nH]c(-c3ccc(NC(=S)Nc4ccc(-c5nc6cc(CC(=O)O)ccc6[nH]5)cc4F)c(F)c3)nc2c1
IC50 (Heparanase): 990 nM

O=C(O)Cc1ccc(O)c(NC(=O)c2ccc(CC(O)Cc3ccc(C(=O)Nc4cc(CC(=O)O)ccc4O)cc3)cc2)c1
IC50 (Heparanase): > 10000 nM

O=C(O)Cc1ccc2oc(-c3ccc(NC(=S)Nc4ccc(-c5nc6cc(CC(=O)O)ccc6o5)cc4)cc3)nc2c1
IC50 (Heparanase): 1810 nM

O=C(O)Cc1ccc2oc(-c3ccc(NC(=O)Nc4ccc(-c5nc6cc(CC(=O)O)ccc6o5)cc4)cc3)nc2c1
IC50 (HT-1080 [2]; ht-1080): Not Active
IC50 (U-87 MG [8]; u-87mg atcc): Not Active
IC50 (U2OS [11]; u2os): Not Active
IC50 (Heparanase): 3200 nM

O=C(O)CNC(=O)Cc1ccc2oc(-c3ccc(NC(=O)Nc4ccc(-c5nc6cc(CC(=O)NCC(=O)O)ccc6o5)cc4F)c(F)c3)nc2c1
inhibition at 10 µM (U2OS [1]): < 50%
IC50 (HT-1080 [2]; ht-1080): Not Active
inhibition at 10 µM (U-87 MG [4]): 50 to 90%
inhibition at 10 µM (HT-1080 [5]): 50 to 90%
inhibition [6]: < 40%
IC50 (U-87 MG [8]; u-87mg atcc): Not Active
inhibition [9]: < 40%
IC50 (U2OS [11]; u2os): Not Active
IC50 (Heparanase): 450 nM
inhibition ([13]; concentration not given here): < 40%
inhibition [14]: < 40%
inhibition ([15]; concentration not given here): < 40%

CC(C)CC(NC(=O)Cc1ccc2oc(-c3ccc(NC(=O)Nc4ccc(-c5nc6cc(CC(=O)NC(CC(C)C)B(O)O)ccc6o5)cc4F)c(F)c3)nc2c1)B(O)O (configuration not stated)
IC50 (Heparanase): 4870 nM

O=C(Cc1ccc2oc(-c3ccc(NC(=O)Nc4ccc(-c5nc6cc(CC(=O)NCB(O)O)ccc6o5)cc4F)c(F)c3)nc2c1)NCB(O)O
IC50 (Heparanase): > 10000 nM

O=C(Cc1ccc2[nH]c(-c3ccc(NC(=O)Nc4ccc(-c5nc6cc(CC(=O)NCB(O)O)ccc6[nH]5)cc4F)c(F)c3)nc2c1)NCB(O)O
IC50 (Heparanase): > 10000 nM

O=C(Nc1ccc(C(=O)Nc2cccc(C(=O)O)c2)cc1)Nc1ccc(C(=O)Nc2cccc(C(=O)O)c2)cc1
IC50 (Heparanase): 9170 nM

COc1ccc(C(=O)Nc2ccc(CNc3ccc(-c4nc5cc(CC(=O)O)ccc5[nH]4)cc3F)cc2)cc1Br
IC50 (HT-1080 [2]; Homo sapiens, HT-1080, 72 h, read-out: IC50): 8700 nM
inhibition [6]: Active
inhibition at 1 µM (U2OS [17]): 50 to 90%
IC50 (U-87 MG [8]; Homo sapiens, U-87 MG, 72 h, read-out: IC50): 2800 nM
inhibition [9]: Active
IC50 (U2OS [11]; Homo sapiens, U2OS, 72 h, read-out: IC50): 1700 nM
inhibition [13]: Active
inhibition [14]: Active
inhibition [15]: Active
inhibition at 1 µM (HT-1080 [18]): 50 to 90%
inhibition at 1 µM (U-87 MG [19]): 50 to 90%

O=C(O)Cc1ccc2oc(-c3ccc(NC(=S)Nc4ccc(-c5nc6cc(CC(=O)O)ccc6o5)cc4F)c(F)c3)nc2c1
IC50 (Heparanase): 1400 nM

O=C(Cc1ccc2[nH]c(-c3ccc(NC(=O)Nc4ccc(-c5nc6cc(CC(=O)NC(Cc7ccccc7)C(=O)O)ccc6[nH]5)cc4F)c(F)c3)nc2c1)NC(Cc1ccccc1)C(=O)O (configuration not stated)
IC50 (Heparanase): 820 nM

O=C(Cc1ccc2oc(-c3ccc(NC(=O)Nc4ccc(-c5nc6cc(CC(=O)NC(Cc7ccccc7)C(=O)O)ccc6o5)cc4F)c(F)c3)nc2c1)NC(Cc1ccccc1)C(=O)O (configuration not stated)
IC50 (HT-1080 [2]; ht-1080): Not Active
IC50 (U-87 MG [8]; u-87mg atcc): Not Active
IC50 (U2OS [11]; u2os): Not Active
IC50 (Heparanase): 720 nM

O=C(O)Cc1ccc(O)c(NC(=O)c2ccc(NC(=O)Nc3ccc(C(=O)Nc4cc(CC(=O)O)ccc4O)cc3)cc2)c1
IC50 (Heparanase): 2730 nM

O=C(O)Cc1ccc2[nH]c(-c3ccc(NC(=O)Nc4ccc(-c5nc6cc(CC(=O)O)ccc6[nH]5)cc4F)c(F)c3)nc2c1
IC50 (Heparanase): 980 nM

O=C(O)Cc1ccc2oc(N3CCC(NC(=O)NC4CCN(c5nc6cc(CC(=O)O)ccc6o5)CC4)CC3)nc2c1
IC50 (Heparanase): > 10000 nM

O=C(O)Cc1cccc(NC(=O)c2ccc(NC(=S)Nc3ccc(C(=O)Nc4cccc(CC(=O)O)c4)cc3F)c(F)c2)c1
IC50 (Heparanase): 2610 nM

Cc1cc2nc(-c3ccc(NC(=O)Nc4ccc(-c5nc6cc(C)c(C)cc6o5)cc4)cc3)oc2cc1C
IC50 (Heparanase): > 10000 nM

O=C(O)Cc1cccc(NC(=O)c2ccc(CC(=O)Cc3ccc(C(=O)Nc4cccc(CC(=O)O)c4)cc3)cc2)c1
IC50 (Heparanase): > 10000 nM

O=C(O)Cc1cccc(NC(=O)c2ccc(CC(O)Cc3ccc(C(=O)Nc4cccc(CC(=O)O)c4)cc3)cc2)c1
IC50 (Heparanase): > 10000 nM

O=C(O)CNC(=O)Cc1ccc2[nH]c(-c3ccc(NC(=O)Nc4ccc(-c5nc6cc(CC(=O)NCC(=O)O)ccc6[nH]5)cc4F)c(F)c3)nc2c1
IC50 (Heparanase): > 10000 nM

Cc1cc2nc(-c3ccc(NC(=O)Nc4ccc(-c5nc6cc(C)c(C)cc6o5)cc4F)c(F)c3)oc2cc1C
IC50 (Heparanase): > 10000 nM
